Values quoted from earlier work as cited in patent US4127528A, “Novel derivatives of alpha-endorphin, intermediates therefor and compositions and methods employing said derivatives” (priority 1977, dated 1978).

What was measured:
[1] = tested on: brain opiate receptor sites; conditions: natural peptide
rat = conditions: injected directly into the brain of the rat

H-Tyr-Gly-Gly-Phe-Met-OH [methionine enkephalin]
binding to partially purified brain opiate receptor sites [1]: binds stereo-specifically
analgesic activity (rat): only weak analgesic activity of short duration
activity in bioassays for opiate activity (opiate activity): very active
